Data taken from patent publication US20020051978A1, “Methods and compositions for the identification, assessment, prevention and therapy of human cancers” (priority 2000, published 2002).
Read-outs that look alike come from different tables or passages of the source.

Legend:
[1] = tested on: 60 cancer cell lines (NCI 60 cancer cell line series); test: NCI-DTP in vitro cancer screen, sulforhodamine B (SRB) growth inhibition, 48 hour exposure; assay type: cell-based, human
In short: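 Values come from the NCI-DTP screen database: -log GI50, the concentration giving 50% growth inhibition, derived from SRB cell-mass dose-response curves. Each line seeded at its own density, treated day 1 at five ten-fold-spaced doses in duplicate wells, stained after 48 h.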

[2] = tested on: 60 cancer cell lines (NCI 60 cancer cell line series); conditions: cited from earlier work

## N[C@@H](Cc1ccc(N(CCCl)CCCl)cc1)C(=O)O [Melphalan]
[1]
  classification of cell line as Low(1), Medium(2) or High(3) sensitivity to compound: 2
[1]; Colon COLO-250 CL4010
  classification of cell line as Low(1), Medium(2) or High(3) sensitivity to compound: 2
[1]; Colon HCC-2998 (CL4002)
  classification of cell line as Low(1), Medium(2) or High(3) sensitivity to compound: 2
[1]; Colon HCT-15 CL4015
  classification of cell line as Low(1), Medium(2) or High(3) sensitivity to compound: 2
[1]; Colon HCT-116 (CL4003)
  classification of cell line as Low(1), Medium(2) or High(3) sensitivity to compound: 2
[1]; Colon HT29(I) CL4001
  classification of cell line as Low(1), Medium(2) or High(3) sensitivity to compound: 1
[1]; Colon KM12 (CL4017)
  classification of cell line as Low(1), Medium(2) or High(3) sensitivity to compound: 1
[1]; Colon SW-620 (CL4009)
  classification of cell line as Low(1), Medium(2) or High(3) sensitivity to compound: 2
[1]; Leukemia CCRF-CEM(I) (CL7003)
  classification of cell line as Low(1), Medium(2) or High(3) sensitivity to compound: 3
[1]; Leukemia HL-60(I) (CL7008)
  classification of cell line as Low(1), Medium(2) or High(3) sensitivity to compound: 3
[1]; Leukemia K562(I) CL7005
  classification of cell line as Low(1), Medium(2) or High(3) sensitivity to compound: 2
[1]; Leukemia MOLT-4 (CL7006)
  classification of cell line as Low(1), Medium(2) or High(3) sensitivity to compound: 3
[1]; Leukemia RPMI-8226(I) (CL7010)
  classification of cell line as Low(1), Medium(2) or High(3) sensitivity to compound: 2
[1]; Leukemia SR CL7019
  classification of cell line as Low(1), Medium(2) or High(3) sensitivity to compound: 3
[1]; Melanoma LOX IMVI CL10001
  classification of cell line as Low(1), Medium(2) or High(3) sensitivity to compound: 2
[1]; Melanoma M14 (CL10014)
  classification of cell line as Low(1), Medium(2) or High(3) sensitivity to compound: 2
[1]; Melanoma MALME-3M CL10002
  classification of cell line as Low(1), Medium(2) or High(3) sensitivity to compound: 2
[1]; Melanoma SK-MEL-2 (CL10005)
  classification of cell line as Low(1), Medium(2) or High(3) sensitivity to compound: 2
[1]; Melanoma SK-MEL-5 (CL10007)
  classification of cell line as Low(1), Medium(2) or High(3) sensitivity to compound: 2
[1]; Melanoma SK-MEL-28 (CL10008)
  classification of cell line as Low(1), Medium(2) or High(3) sensitivity to compound: 2
[1]; Melanoma UACC-62 (CL10020)
  classification of cell line as Low(1), Medium(2) or High(3) sensitivity to compound: 3
[1]; Melanoma UACC-257 (CL10021)
  classification of cell line as Low(1), Medium(2) or High(3) sensitivity to compound: 2
[1]; NSCLC A549/ATCC (CL1004)
  classification of cell line as Low(1), Medium(2) or High(3) sensitivity to compound: 2
[1]; NSCLC EKVX (CL1008)
  classification of cell line as Low(1), Medium(2) or High(3) sensitivity to compound: 2
[1]; NSCLC HOP-62 (CL1026)
  classification of cell line as Low(1), Medium(2) or High(3) sensitivity to compound: 2
[1]; NSCLC HOP-92 (CL1029)
  classification of cell line as Low(1), Medium(2) or High(3) sensitivity to compound: 2
[1]; NSCLC NCI-H226 CL1013
  classification of cell line as Low(1), Medium(2) or High(3) sensitivity to compound: 2
[1]; cell line NSCLC NCI-H23(I), CL1001
  sensitivity class NSCLC NCI-H23(I) CL1001: 2
[1]; cell line NSCLC NCI-H332M, CL1017
  sensitivity class NSCLC NCI-H332M CL1017: 1
[1]; cell line NSCLC NCI-H460, CL1021
  sensitivity class NSCLC NCI-H460 CL1021: 3
[1]; cell line NSCLC NCI-H522, CL1003
  sensitivity class NSCLC NCI-H522 CL1003: 2
[1]; cell line Ovarian IGROV1, CL6010
  sensitivity class Ovarian IGROV1 CL6010: 2
[1]; cell line Ovarian OVCAR-3, CL6001
  sensitivity class Ovarian OVCAR-3 CL6001: 2
[1]; cell line Ovarian OVCAR-4, CL6002
  sensitivity class Ovarian OVCAR-4 CL6002: 2
[1]; cell line Ovarian OVCAR-5, CL6003
  sensitivity class Ovarian OVCAR-5 CL6003: 2
[1]; cell line Ovarian OVCAR-8, CL6005
  sensitivity class Ovarian OVCAR-8 CL6005: 2
[1]; cell line Ovarian SK-OV-3, CL6011
  sensitivity class Ovarian SK-OV-3 CL6011: 2
[1]; cell line Prostate DU-145, CL11003
  sensitivity class Prostate DU-145 CL11003: 2
[1]; cell line Prostate PC-3(I), CL11001
  sensitivity class Prostate PC-3(I) CL11001: 2
[1]; cell line Renal 786-O, CL9018
  sensitivity class Renal 786-O CL9018: 2
[1]; cell line Renal A498, CL9013
  sensitivity class Renal A498 CL9013: 1
[1]; cell line Renal ACHN, CL9023
  sensitivity class Renal ACHN CL9023: 3
[1]; cell line Renal CAKI-1, CL9015
  sensitivity class Renal CAKI-1 CL9015: 3
[1]; cell line Renal RXF-393, CL9016
  sensitivity class Renal RXF-393 CL9016: 2
[1]; cell line Renal SN12C, CL9008
  sensitivity class Renal SN12C CL9008: 2
[1]; cell line Renal TK10, CL9024
  sensitivity class Renal TK10 CL9024: 1
[1]; cell line Renal UO-31, CL9004
  sensitivity class Renal UO-31 CL9004: 2
[2]; Breast BT-549 (CL5013)
  -Log (GI50): 4.4
[2]; Breast HS-578T CL5006
  -Log (GI50): 4.3
[2]; Breast MCF7(I) (CL5001)
  -Log (GI50): 5.0
[2]; Breast MCF7/ADRr (CL5002)
  -Log (GI50): 4.4
[2]; Breast MDA-MB-231 CL5005
  -Log (GI50): 4.3
[2]; Breast MDA-MB-435 (CL5011)
  -Log (GI50): 4.4
[2]; Breast MDA-N CL5012
  -Log (GI50): 4.3
[2]; Breast T-47D (CL5014)
  -Log (GI50): 4.9
[2]; CNS SF-268 CL12014
  -Log (GI50): 4.7
[2]; CNS SF-295 CL12015
  -Log (GI50): 4.7
[2]; CNS SF-539 CL12016
  -Log (GI50): 4.8
[2]; CNS SNB-19 (CL12002)
  -Log (GI50): 4.3
[2]; CNS SNB-75(I) CL12005
  -Log (GI50): 4.5
[2]; CNS U251(I) CL12009
  -Log (GI50): 4.6
[2]; Colon COLO-250 CL4010
  -Log (GI50): 4.4
[2]; Colon HCC-2998 (CL4002)
  -Log (GI50): 4.3
[2]; Colon HCT-15 CL4015
  -Log (GI50): 4.4
[2]; Colon HCT-116 (CL4003)
  -Log (GI50): 4.4
[2]; Colon HT29(I) CL4001
  -Log (GI50): 4.1
[2]; Colon KM12 (CL4017)
  -Log (GI50): 4.1
[2]; Colon SW-620 (CL4009)
  -Log (GI50): 4.5
[2]; Leukemia CCRF-CEM(I) (CL7003)
  -Log (GI50): 5.5
[2]; Leukemia HL-60(I) (CL7008)
  -Log (GI50): 5.5
[2]; Leukemia K562(I) CL7005
  -Log (GI50): 4.3
[2]; Leukemia MOLT-4 (CL7006)
  -Log (GI50): 5.6
[2]; Leukemia RPMI-8226(I) (CL7010)
  -Log (GI50): 4.4
[2]; Leukemia SR CL7019
  -Log (GI50): 5.8
[2]; Melanoma LOX IMVI CL10001
  -Log (GI50): 4.7
[2]; Melanoma M14 (CL10014)
  -Log (GI50): 4.6
[2]; Melanoma MALME-3M CL10002
  -Log (GI50): 4.6
[2]; Melanoma SK-MEL-2 (CL10005)
  -Log (GI50): 4.2
[2]; Melanoma SK-MEL-5 (CL10007)
  -Log (GI50): 4.4
[2]; Melanoma SK-MEL-28 (CL10008)
  -Log (GI50): 4.3
[2]; Melanoma UACC-62 (CL10020)
  -Log (GI50): 4.9
[2]; Melanoma UACC-257 (CL10021)
  -Log (GI50): 4.4
[2]; NCSLC NCI-H522 CL1003
  -Log (GI50): 4.6
[2]; NSCLC A549/ATCC (CL1004)
  -Log (GI50): 4.5
[2]; NSCLC EKVX (CL1008)
  -Log (GI50): 4.3
[2]; NSCLC HOP-62 (CL1026)
  -Log (GI50): 4.8
[2]; NSCLC HOP-92 (CL1029)
  -Log (GI50): 4.4
[2]; NSCLC NCI-H23(I) CL1001
  -Log (GI50): 4.6
[2]; NSCLC NCI-H226 CL1013
  -Log (GI50): 4.4
[2]; NSCLC NCI-H332M CL1017
  -Log (GI50): 4.1
[2]; NSCLC NCI-H460 CL1021
  -Log (GI50): 5.2
[2]; Ovarian IGROV1 CL6010
  -Log (GI50): 4.3
[2]; Ovarian OVCAR-3 CL6001
  -Log (GI50): 4.4
[2]; Ovarian OVCAR-4 CL6002
  -Log (GI50): 4.4
[2]; Ovarian OVCAR-5 CL6003
  -Log (GI50): 4.3
[2]; Ovarian OVCAR-8 CL6005
  -Log (GI50): 4.4
[2]; Ovarian SK-OV-3 CL6011
  -Log (GI50): 4.5
[2]; Prostate DU-145 CL11003
  -Log (GI50): 4.3
[2]; Prostate PC-3(I) CL11001
  -Log (GI50): 4.4
[2]; Renal 786-O CL9018
  -Log (GI50): 4.8
[2]; Renal A498 CL9013
  -Log (GI50): 4.0
[2]; Renal ACHN CL9023
  -Log (GI50): 5.0
[2]; Renal CAKI-1 CL9015
  -Log (GI50): 5.0
[2]; Renal RXF-393 CL9016
  -Log (GI50): 4.7
[2]; Renal SN12C CL9008
  -Log (GI50): 4.8
[2]; Renal TK10 CL9024
  -Log (GI50): 4.2
[2]; Renal UO-31 CL9004
  -Log (GI50): 4.3
